The values below come from US9556180B2, “Pyrazolo[3,4-d]pyrimidinone compounds as inhibitors of the P53/MDM2 interaction” (Novartis AG, priority 2013, dated 2017).

What all share (type): binding
Test [1] addresses T1, p53-MDM2 interaction (human MDM2 protein, amino acids 2-188) (Homo sapiens, UniProt Q00987).
T1 construct: human MDM2 protein (amino acids 2-188); made in house
Briefly: p53-MDM2 Assay 1: TR-FRET inhibition of p53-MDM2 interaction. Conditions: 1.25 nM MDM2-biotinylated, 10 nM Cy5-p53 peptide. As for the experimental part: (§1) Time Resolved Fluorescence Energy Transfer (TR-FRET) Assay
(§2) The inhibition of p53-MDM2 and p53-MDM4 interactions is measured by time resolved fluorescence energy transfer (TR-FRET). Fluorescence energy transfer (or Foerster resonance energy transfer) describes an energy transfer between donor and acceptor fluorescent molecules. For this assay, human MDM2 protein (amino acids 2-188) and human MDM4 protein (amino acids 2-185), tagged with a C-terminal biotin moiety, are used in combination with a Europium labeled streptavidin (Perkin Elmer, Inc., Waltham, Mass., USA) serving as the donor fluorophore. The p53 derived, Cy5 labeled peptide Cy5-TFSDLWKLL (p53 aa18-26) is the energy acceptor. Upon excitation of the donor molecule at 340 nm, binding interaction between MDM2 or MDM4 and the p53 peptide induces energy transfer and enhanced response at the acceptor emission wavelength at 665 nm. Disruption of the formation of the p53-MDM2 or p53-MDM4 complex due to an inhibitor molecule binding to the p53 binding site of MDM2 or MDM4 results in increased donor emission at 620 nm. The ratiometric FRET assay readout is calculated from the raw data of the two distinct fluorescence signals measured in time resolved mode (fluorescence 665 nm/fluorescence 620 nm×1000).
(§3) After addition of 1.25 nM MDM2-biotinylated or 2.5 nM MDM4-biotinylated (internal preparations, both MDM2 and MDM4 are biotinylated at the C-terminal of the peptide construct), and 0.625 nM Europium labeled streptavidin (Perkin Elmer), the solution is pre-incubated for 15 minutes at room temperature, then 10 nM Cy5-p53 peptide (internal preparation, the Cy5 dye is directly bound to the N-terminal part of p53 peptide construct) is added before an incubation at room temperature for 15 minutes prior to reading the plate. For measurement of samples, a Victor II microplate reader (Perkin Elmer) is used with the following settings: Excitation 340 nm, Emission Donor 620 nm and Emission Acceptor 665 nm. IC50 values are calculated by curve fitting using XLfit. If not specified, reagents are purchased from Sigma-Aldrich Chemie GmBH, Buchs, Switzerland.
(§4) This assay was used to evaluate compounds displaying inhibition of p53-MDM2 interaction and p53-MDM4 interaction at IC50s of 0.005 to 50 μM (p53-MDM2 Assay 1 and p53-MDM4 Assay 1, respectively). For selected compounds displaying IC50s between […] on MDM2, a slightly modified assay is used with the following adaptations: 0.1 nM MDM2, 0.1 nM Europium labeled streptavidin and Tecan genios Pro is used as a microplate reader for the fluorescence measurements (p53-MDM2 Assay 2).
In general terms: In TR-FRET formats the signal depends on donor and acceptor labels being close together.

For test [2], the target named is T2, p53-MDM4 interaction (human MDM4 protein, amino acids 2-185) (Homo sapiens, UniProt O15151).
T2 construct: human MDM4 protein (amino acids 2-185); made in house
T2 sequence (O15151 2-185): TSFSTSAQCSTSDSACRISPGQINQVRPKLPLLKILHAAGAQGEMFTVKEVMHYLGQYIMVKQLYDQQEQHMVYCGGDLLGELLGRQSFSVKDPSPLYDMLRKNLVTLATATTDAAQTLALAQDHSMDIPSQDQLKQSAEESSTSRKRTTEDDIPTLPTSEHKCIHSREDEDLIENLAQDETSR
Briefly: p53-MDM4 Assay 1: TR-FRET inhibition of p53-MDM4 interaction. The following applies: 2.5 nM MDM4-biotinylated, 10 nM Cy5-p53 peptide. As to the method:
as §1, §2, §3, §4

In test [3] the target is T1, p53-MDM2 interaction (human MDM2 protein, amino acids 2-188). Briefly: p53-MDM2 Assay 2: slightly modified TR-FRET assay. Conditions: 0.1 nM MDM2, 0.1 nM Europium labeled streptavidin, Tecan genios Pro reader. As to the method:
as §1, §2, §3, §4

T1 sequence (Q00987 2-188): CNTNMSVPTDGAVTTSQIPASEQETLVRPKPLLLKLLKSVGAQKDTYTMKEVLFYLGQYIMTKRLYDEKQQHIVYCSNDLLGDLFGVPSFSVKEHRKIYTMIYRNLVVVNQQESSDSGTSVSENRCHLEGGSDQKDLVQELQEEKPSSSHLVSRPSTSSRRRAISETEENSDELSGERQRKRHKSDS

Usually IC50 stands for the concentration at which inhibition is half-maximal. On to `Cc1cc(Cl)ccc1C1c2c(nn(Cc3ccccc3)c2C(C)C)NC(=O)N1c1cccc(Cl)c1F` (stereo not drawn) [Example 1, 2-Benzyl-5-(3-chloro-2-fluoro-phenyl)-4-(4-chloro-2-methyl-phenyl)-3-isopropyl-2,4,5,7-tetrahydro-pyrazolo[3,4-d]pyrimidin-6-one], for which the IC50 was 1.8 nM in test [1] and 34700 nM in test [2].
The like results for `Cc1cc(Cl)ccc1[C@H]1c2c(nn(Cc3ccccc3)c2C(C)C)NC(=O)N1c1cccc(Cl)c1F` [Example 2, (S)-2-Benzyl-5-(3-chloro-2-fluorophenyl)-4-(4-chloro-2-methylphenyl)-3-isopropyl-4,5-dihydro-2H-pyrazolo[3,4-d]pyrimidin-6(7H)-one] were, in that order, 1.8 nM and 18500 nM.
The like results for `Cc1cc(Cl)ccc1[C@@H]1c2c(nn(Cc3ccccc3)c2C(C)C)NC(=O)N1c1cccc(Cl)c1F` [Example 3, (R)-2-Benzyl-5-(3-chloro-2-fluorophenyl)-4-(4-chloro-2-methylphenyl)-3-isopropyl-4,5-dihydro-2H-pyrazolo[3,4-d]pyrimidin-6(7H)-one] were, in that order, 146 nM and 39700 nM.
Taken in the same sequence, the figures for `COc1ccccc1-n1nc2c(c1C(C)C)[C@@H](c1ccc(Cl)cc1C)N(c1cccc(Cl)c1F)C(=O)N2` [Example 7, (R)-5-(3-Chloro-2-fluoro-phenyl)-4-(4-chloro-2-methyl-phenyl)-3-isopropyl-2-(2-methoxy-phenyl)-2,4,5,7-tetrahydro-pyrazolo[3,4-d]pyrimidin-6-one] were 62.2 nM and 19100 nM.
Consider `Cc1cc(Cl)ccc1C1c2c(nn(CCN(C)C)c2C(C)C)NC(=O)N1c1cccc(Cl)c1F` (stereo not drawn) [Example 9, 5-(3-chloro-2-fluoro-phenyl)-4-(4-chloro-2-methyl-phenyl)-2-(2-dimethylamino-ethyl)-3-isopropyl-2,4,5,7-tetrahydro-pyrazolo[3,4-d]pyrimidin-6-one], for which the IC50 in test [1] came out at 16.7 nM; in test [2], 41700 nM.
The like results for `COc1ccccc1-n1nc2c(c1C(C)C)C(c1ccc(Cl)cc1C)N(c1cc(Cl)ccc1OCCN(C)C)C(=O)N2` (stereo not drawn) [Example 12, 5-[5-Chloro-2-(2-dimethylamino-ethoxy)-phenyl]-4-(4-chloro-2-methyl-phenyl)-3-isopropyl-2-(2-methoxy-phenyl)-2,4,5,7-tetrahydro-pyrazolo[3,4-d]pyrimidin-6-one] were, in that order, 2.5 nM and 2360 nM.
The like results for `COCCn1cc(N2C(=O)Nc3nn(-c4ccccc4OC)c(C(C)C)c3C2c2ccc(Cl)cc2)cc(Cl)c1=O` (stereo not drawn) [Example 16, 5-[5-Chloro-1-(2-methoxy-ethyl)-6-oxo-1,6-dihydro-pyridin-3-yl]-4-(4-chloro-phenyl)-3-isopropyl-2-(2-methoxy-phenyl)-2,4,5,7-tetrahydro-pyrazolo[3,4-d]pyrimidin-6-one] were, in that order, 5.6 nM and 8570 nM.
The like results for `COc1ccccc1-n1nc2c(c1C(C)C)C(c1ccc(Cl)cc1)N(c1cc(Cl)ccc1OCCN(C)C)C(=O)N2` (stereo not drawn) [Example 17, 5-(5-Chloro-2-(3-(dimethylamino)ethoxy)phenyl)-4-(4-chlorophenyl)-3-isopropyl-2-(2-methoxyphenyl)-4,5-dihydro-2H-pyrazolo[3,4-d]pyrimidin-6(7H)-one] were, in that order, 6.6 nM and 11600 nM.
Consider `COc1ccccc1-n1nc2c(c1C(C)C)C(c1ccc(Cl)cc1)N(c1ccc(=O)n(C)c1)C(=O)N2` (stereo not drawn) [Example 20, 4-(4-Chloro-phenyl)-3-isopropyl-2-(2-methoxy-phenyl)-5-(1-methyl-6-oxo-1,6-dihydro-pyridin-3-yl)-2,4,5,7-tetrahydro-pyrazolo[3,4-d]pyrimidin-6-one], for which the IC50 in test [1] is 4.8 nM; in test [2] it was 4730 nM.
As to `COc1ccc(C#N)cc1-n1nc2c(c1C(C)C)C(c1ccc(Cl)cc1C)N(c1cc(Cl)ccc1C)C(=O)N2` (stereo not drawn) [Example 23, 3-(4-(4-Chloro-2-methylphenyl)-5-(5-chloro-2-methylphenyl)-3-isopropyl-6-oxo-4,5,6,7-tetrahydro-2H-pyrazolo[3,4-d]pyrimidin-2-yl)-4-methoxybenzonitrile], the IC50 in test [3] worked out at 0.15 nM.
On the same count and under the same terms, with `COc1ccc(C#N)cc1-n1nc2c(c1C(C)C)C(c1ccc(Cl)cc1C)N(c1cc(Cl)c(=O)n(C)c1)C(=O)N2` (stereo not drawn) [Example 24, 3-(5-(5-Chloro-1-methyl-6-oxo-1,6-dihydropyridin-3-yl)-4-(4-chloro-2-methylphenyl)-3-isopropyl-6-oxo-4,5,6,7-tetrahydro-2H-pyrazolo[3,4-d]pyrimidin-2-yl)-4-methoxybenzonitrile] the figure was 0.14 nM; with `COc1ccc(CN)cc1-n1nc2c(c1C(C)C)C(c1ccc(Cl)cc1C)N(c1cc(Cl)ccc1C)C(=O)N2` (stereo not drawn) [Example 25, 2-(5-(Aminomethyl)-2-methoxyphenyl)-4-(4-chloro-2-methylphenyl)-5-(5-chloro-2-methylphenyl)-3-isopropyl-4,5-dihydro-2H-pyrazolo[3,4-d]pyrimidin-6(7H)-one], 0.12 nM.
Same read-out and setting: with `COc1ccc(CNC(C)=O)cc1-n1nc2c(c1C(C)C)C(c1ccc(Cl)cc1C)N(c1cc(Cl)ccc1C)C(=O)N2` (stereo not drawn) [Example 26, N-(3-(4-(4-Chloro-2-methylphenyl)-5-(5-chloro-2-methylphenyl)-3-isopropyl-6-oxo-4,5,6,7-tetrahydro-2H-pyrazolo[3,4-d]pyrimidin-2-yl)-4-methoxybenzyl)acetamide] the figure was 0.13 nM; with `COc1ccc(CNC=O)cc1-n1nc2c(c1C(C)C)C(c1ccc(Cl)cc1C)N(c1cc(Cl)ccc1C)C(=O)N2` (stereo not drawn) [Example 27, N-(3-(4-(4-Chloro-2-methylphenyl)-5-(5-chloro-2-methylphenyl)-3-isopropyl-6-oxo-4,5,6,7-tetrahydro-2H-pyrazolo[3,4-d]pyrimidin-2-yl)-4-methoxybenzyl)formamide], 0.11 nM; with `COc1ccc(C(N)=O)cc1-n1nc2c(c1C(C)C)C(c1ccc(Cl)cc1C)N(c1cc(Cl)ccc1C)C(=O)N2` (stereo not drawn) [Example 28, 3-(4-(4-Chloro-2-methylphenyl)-5-(5-chloro-2-methylphenyl)-3-isopropyl-6-oxo-4,5,6,7-tetrahydro-2H-pyrazolo[3,4-d]pyrimidin-2-yl)-4-methoxybenzamide], 0.24 nM.
Consider `COc1ccc(CN)cc1-n1nc2c(c1C(C)C)C(c1ccc(Cl)cc1C)N(c1cc(Cl)c(=O)n(C)c1)C(=O)N2` (stereo not drawn) [Example 29, 2-(5-(Aminomethyl)-2-methoxyphenyl)-5-(5-chloro-1-methyl-6-oxo-1,6-dihydropyridin-3-yl)-4-(4-chloro-2-methylphenyl)-3-isopropyl-4,5-dihydro-2H-pyrazolo[3,4-d]pyrimidin-6(7H)-one], for which the IC50 in test [3] came out at 0.18 nM.
Still for that read-out and setting: with `COc1ccc(CNC(C)=O)cc1-n1nc2c(c1C(C)C)C(c1ccc(Cl)cc1C)N(c1cc(Cl)c(=O)n(C)c1)C(=O)N2` (stereo not drawn) [Example 30, N-(3-(5-(5-Chloro-1-methyl-6-oxo-1,6-dihydropyridin-3-yl)-4-(4-chloro-2-methylphenyl)-3-isopropyl-6-oxo-4,5,6,7-tetrahydro-2H-pyrazolo[3,4-d]pyrimidin-2-yl)-4-methoxybenzyl)acetamide] the figure was 0.21 nM; with `COc1ncc(-n2nc3c(c2C(C)C)C(c2ccc(Cl)cc2C)N(c2cc(Cl)c(=O)n(C)c2)C(=O)N3)c(OC)n1` (stereo not drawn) [Example 31, 5-(5-Chloro-1-methyl-6-oxo-1,6-dihydropyridin-3-yl)-4-(4-chloro-2-methylphenyl)-2-(2,4-dimethoxypyrimidin-5-yl)-3-isopropyl-4,5-dihydro-2H-pyrazolo[3,4-d]pyrimidin-6(7H)-one], 0.29 nM.
